Data published in patent US20150086627A1, “DOSAGE FORMS OF HALOFUGINONE AND METHODS OF USE” (priority 2012, published 2015).
Counter-ions that a name gives are not always drawn. Like-named read-outs stand apart in the source and are kept apart here.

What was measured:
[1] = Plasma pharmacokinetics of halofuginone in male beagle dogs (Example B); assay type: in vivo; conditions: dog
Description: Five groups of five male beagle dogs (25 total dogs) were orally administered various compositions of halofuginone solutions. […] The dogs were fasted overnight prior to administration, and food was returned four hours post-administration. Plasma was drawn from each animal at the time of administration, and then at eight successive time points (0.5, 1, 2, 4, 8, 12, 24, and 48 hours post-administration).
The plasma samples, collected from the dogs at the various time points, were assayed for halofuginone concentrations using HPLC-MS/MS (ACE Excel 2C18 AR, 50×2.1 mm column). [Cmax: maximum observed halofuginone concentration; tmax: time point at Cmax; AUC(0-t): AUC to the last non-zero concentration (t is the corresponding time); AUC(0-∞): AUC(0-∞)=AUC(0-t)+AUC(t-∞); t1/2: half-life; time taken for drug plasma concentration to fall by one-half; Vz_obs: observed volume of distribution; Cl_obs: observed clearance]

beagle dogs = conditions: 6 Beagle dogs, oral solution 0.15 mg/kg
Description: Two groups of 6 male Beagle dogs were dosed with two formulations or two routes of administration of Halofuginone hydrobromide. In a cross-over study design, one group received an oral (PO) dose at ˜0.15 mg/kg as enteric-coated (EC) tablets in a gelatin capsule and then another oral dose at 0.15 mg/kg as a solution 7 days later. The second group received a subcutaneous (SC) dose at 0.03 mg/kg as a solution and then an intravenous (IV) dose at 0.05 mg/kg as a solution. The test article was administered once for each dose level and dosage form. The animals were dosed once a week or after completing at least a 7 day washout period. The dose formulations of Halofuginone hydrobromide were EC tablets or 0.3 mg/mL solutions. The EC tablets contained 0.075 mg of Halofuginone hydrobromide. The tablets (20/dog) were loaded into a gelatin capsule prior to dosing.
Each animal received a physical examination prior to dosing, with cage side observations for mortality and morbidity twice daily thereafter. Detailed clinical observations were performed prior to dosing and at 15 minute (min) intervals during the first 2 hours (h) postdose, at 4, 8, and 24 h postdose on dosing days. […]

[2] = Plasma pharmacokinetics of Halofuginone hydrobromide in Beagle dogs (Example C); conditions: dog, in vivo; for half-life: t1/2
Description: Blood samples were collected from the jugular, cephalic, or saphenous veins into tubes containing EDTA at the following time points: 0, 0.5, 1, 2, 4, 8, 12, 24, and 48 h postdose. Blood samples were kept on wet ice until processing. Blood samples were centrifuged at 3200 RPM for 10 min at ˜5° C. Plasma samples were directly transferred to a 96-well plate tube (1.1 mL). Plug caps were placed on the tubes. Plasma samples were stored at −20±5° C. until they were shipped for analysis.
Statistical analysis of PK parameters for dogs treated with both enteric and oral solutions were calculated using Excel® spreadsheets. Summary statistics were derived for the following PK parameters for each dog receiving both the dog EC tablets and the oral drug as a clear solution in Group 1: • Cmax (ng/mL): Maximum Observed Concentration • tmax (h): Time Point at Cmax • AUC(0−t) (ng·h/mL): AUC to the last non-zero concentration (t is the corresponding time) • AUC(0−∞) (ng·h/mL): AUC(0-∞)=AUC(0-t)+AUC(t-∞) • t1/2(h): Half-life; time taken for drug plasma concentration to fall by one-half • % F: Bioavailability; [AUC(0-t)×*Dose IV (mg/kg)]/[AUC(0-t)IV*Dose×(mg/kg)] Paired differences for each dog were determined by subtracting the summary PK value as follows: […]

dogs = test: Previous study in dogs, daily oral dosing for up to 28 days; assay type: in vivo
Description: The dose levels were selected based on the results of a previous study in dogs in which the high-dose group was dosed at 0.15 mg/kg/day for up to 28 days (this dose was tolerated for the entire course of the study).

Plasmodium berghei = conditions: Plasmodium berghei-infected mice; cited from earlier work
mdx mice = conditions: cited from earlier work
cell lines = conditions: cited from earlier work
[3] = tested on: human leiomyosarcoma tumor cells; conditions: low concentrations; cells stimulated by serum or HB-EGF; cited from earlier work
[4] = tested on: vascular SMC and fibroblasts; conditions: cited from earlier work
mice = conditions: mouse, in vivo, cited from earlier work
[5] = male, beagle, in vivo, po, 0.15 mg/kg
[6] = male, Beagle, iv, 0.05 mg/kg, Mean Conc. (plasma)
[7] = male, Beagle, iv, 0.05 mg/kg, Sample Conc. (plasma)
[8] = male, Beagle, po, 0.15 mg/kg, Mean Conc. (plasma)
[9] = male, Beagle, sc, 0.03 mg/kg, Mean Conc. (plasma)
[10] = male, Beagle, sc, 0.03 mg/kg, Sample Conc. (plasma)

Structure (SMILES): O=C(C[C@@H]1NCCC[C@H]1O)Cn1cnc2cc(Br)c(Cl)cc2c1=O [Halofuginone hydrobromide, 7-Bromo-6-chloro-3-[3-[(2S,3R)-3-hydroxy-2-piperidinyl]-2-oxopropyl]-4-quinazolinone]
- half-life ([1]; plasma, male beagle dogs, oral 0.15 mg/kg aqueous solution, mean): 889 min
- AUC(0-inf) [1, 5]: 49.1 ng·h/mL
- AUC(0-t) [1, 5]: 39.5 ng·h/mL
- Cl_obs [1, 5]: 57.8 mL/min/kg
- Cmax [1, 5]: 5.26 ng/mL
- Tmax [1, 5]: 54 min
- Vz_obs [1, 5]: 70.73 L/kg
- animals with emesis (beagle dogs): 5 of 6
- episodes of emesis (total emetic events) (beagle dogs): 18
- absolute bioavailability versus oral solution [2]: increased
- Cmax ([2]; male, Beagle, iv, 0.05 mg/kg): 6.95 ng/mL
- concentration at 0.083 h [2, 6]: 6.96 ng/mL
- concentration at 0.5 h [2, 6]: 4.47 ng/mL
- concentration at 1 h [2, 6]: 3.81 ng/mL
- concentration at 2 h [2, 6]: 2.29 ng/mL
- concentration at 4 h [2, 6]: 1.74 ng/mL
- concentration at 8 h [2, 6]: 1.08 ng/mL
- concentration at 12 h [2, 6]: 0.76 ng/mL
- concentration at 24 h [2, 6]: 0.67 ng/mL
- concentration at 48 h [2, 6]: 0.23 ng/mL
- concentration at 0.083 h [2, 7]: 7.81 ng/mL
- concentration at 0.5 h [2, 7]: 5.52 ng/mL
- concentration at 1 h [2, 7]: 3.55 ng/mL
- concentration at 2 h [2, 7]: 2.13 ng/mL
- concentration at 8 h [2, 7]: 0.8 ng/mL
- half-life ([2]; male, Beagle, iv, 0.05 mg/kg): 621 min
- Tmax ([2]; male, Beagle, iv, 0.05 mg/kg, tmax): 4.8 min
- concentration at 0.5 h [2, 8]: 6.41 ng/mL
- concentration at 1 h [2, 8]: 4.97 ng/mL
- concentration at 2 h [2, 8]: 3.68 ng/mL
- concentration at 4 h [2, 8]: 1.87 ng/mL
- concentration at 8 h [2, 8]: 1.38 ng/mL
- concentration at 12 h [2, 8]: 1.14 ng/mL
- concentration at 24 h [2, 8]: 0.53 ng/mL
- concentration at 48 h [2, 8]: 0.2 ng/mL
- half-life ([2]; male, Beagle, po, 0.15 mg/kg): 810 min
- Tmax ([2]; male, Beagle, po, 0.15 mg/kg, tmax): 34.8 min
- Sample Conc. (plasma) ([2]; male, Beagle, sc, 0.03 mg/kg, 48 h): 0.12 ng/mL
- Cmax ([2]; male, Beagle, sc, 0.03 mg/kg): 3.66 ng/mL
- concentration at 0.5 h [2, 9]: 3.62 ng/mL
- concentration at 1 h [2, 9]: 1.79 ng/mL
- concentration at 2 h [2, 9]: 1.4 ng/mL
- concentration at 4 h [2, 9]: 1 ng/mL
- concentration at 8 h [2, 9]: 0.63 ng/mL
- concentration at 12 h [2, 9]: 0.51 ng/mL
- concentration at 24 h [2, 9]: 0.14 ng/mL
- concentration at 0.5 h [2, 10]: 2.82 ng/mL
- concentration at 1 h [2, 10]: 1.67 ng/mL
- concentration at 48 h [2, 10]: 0.16 ng/mL
- Tmax ([2]; male, Beagle, sc, 0.03 mg/kg, tmax): 30 min
- Tmax ([2]; male, beagle, po, 0.15 mg/kg): 60 min
- clinical signs of toxicity (dogs; 0.15 mg/kg/day for up to 28 days): emesis and decreased activity during the first week of dosing
- tolerability (dogs; high-dose group 0.15 mg/kg/day for up to 28 days): tolerated
- curative effects (Plasmodium berghei): displayed curative effects
- parasitemias (Plasmodium berghei): reduce parasitemias to undetectable levels
- muscle physiology / muscle regeneration (mdx mice): effective in improving muscle physiology and/or reducing the pressure on muscle regeneration
- angiogenesis inhibition (cell lines): effective angiogenesis inhibitor
- inhibition of DNA synthesis [3]: strong inhibitor of DNA synthesis
- growth of vascular SMC and fibroblasts [4]: inhibits autocrine growth of vascular SMC and fibroblasts
- gastrointestinal tract injuries (mice; 5 mg/kg): widespread gastrointestinal tract injuries, e.g., intestinal hemorrhage
- gastrointestinal tract injuries (mice; sc): did not experience the same levels of gastrointestinal tract injuries
